The structures appear in SMILES notation. Values joined by “and” are separate entries in the source; they are usually repeats but may differ in a detail not shown here. Identical values can stand only once.

The results in this text go back to patent publication US9586931B2 (Merck Sharp & Dohme Corp., priority 2012, dated 2017).

The first assay addresses T1, recombinant human GST-Syk (Homo sapiens, UniProt P43405).
T1 construct: purchased Carna Biosciences 08-176
Put plainly: Homogeneous Time-Resolved Fluorescence (HTRF) assay for the recombinant human Syk enzyme. The settings on record: recombinant human GST-Syk 5 pM, ATP 25 μM, 10-dose titration 10 μM to 0.508 nM; read-out: rhSYK Activity IC50. The class given is biochemical. As to the method: Syk inhibition may be determined using the following assay protocol:
Homogeneous Time-Resolved Fluorescence (HTRF) assay for the recombinant human Syk enzyme: A recombinant GST-hSyk fusion protein was used to measure potency of compounds to inhibit human Syk activity. […] Final volume of the reaction was 10 μL. Phosphorylation of the peptide was allowed to proceed for 45 minutes at room temperature. To quench the reaction and detect the phosphorylated product, 2 nM of a Europium-anti-phosphotyrosine antibody (Perkin Elmer #AD0161) and 70 nM SA-APC (Perkin-Elmer #CR130-100) were added together in 15 mM Tris pH 7.5, 40 mM EDTA, 0.01% tween 20. Final volume of the quenching solution was 10 μL. The resulting HTRF signal was measured after 30 minutes on an EnVision (Perkin-Elmer) reader using a time-resolved fluorescence protocol.
(In general: Time-resolved FRET reads energy transfer from a long-lived donor to a nearby acceptor.)
Take `Cc1cc(Nc2nccc(C(F)(F)F)n2)cc(-c2cn(CC3(O)CCC(C(=O)O)C(C)(C)C3)nn2)c1` (single isomer, unassigned) [Example 3.2, (R or S) 4-hydroxy-2,2-dimethyl-4-{[4-(3-methyl-5-{[4-(trifluoromethyl)pyrimidin-2-yl]amino}phenyl)-1H-1,2,3-triazol-1-yl]methyl}cyclohexanecarboxylic acid]: the 50% inhibitory concentration (IC50) came out at 46.8 nM. Same read-out and setting: the value for `COc1nc(Nc2cc(C)cc(-c3cn(CC(C)(O)C(C)(C)O)nn3)c2)ncc1F` (stereo not drawn) [Example 21.20, 1-(4-{3-[(5-fluoro-4-methoxypyrimidin-2-yl)amino]-5-methylphenyl}-1H-1,2,3-triazol-1-yl)-2,3-dimethylbutane-2,3-diol] was 109 nM; that for `Cc1cc(Nc2cc(C(F)(F)F)ccn2)nc(-c2cn(C[C@@H](O)C(=O)O)nn2)c1` [Example 4.20, (2R)-2-hydroxy-3-[4-(4-methyl-6-{[4-(trifluoromethyl)pyridin-2-yl]amino}pyridin-2-yl)-1H-1,2,3-triazol-1-yl]propanoic acid] was 17 nM. On the same count and under the same terms, the value for `CCC(O)Cn1cc(-c2cc(C)cc(Nc3cc(C(F)(F)F)ccn3)n2)nn1` (racemic) [Example 5.5, 1-[4-(4-methyl-6-{[4-(trifluoromethyl)pyridin-2-yl]amino}pyridin-2-yl)-1H-1,2,3-triazol-1-yl]butan-2-ol] was 15.8 nM. Still for that read-out and setting: as for `Cc1cc(Nc2cc(C(F)(F)F)ccn2)nc(-c2cn(CC3CNC(=O)O3)nn2)c1` (racemic) [Example 5.84, 5-{[4-(4-methyl-6-{[4-(trifluoromethyl)pyridin-2-yl]amino}pyridin-2-yl)-1H-1,2,3-triazol-1-yl]methyl}-1,3-oxazolidin-2-one], the figure is 2.1 nM. Regarding `Cc1cc(Nc2cc(C(F)(F)F)ccn2)nc(-c2cn(C[C@@H]3CNC(=O)O3)nn2)c1` [Example 5.103, (5S)-5-{[4-(4-methyl-6-{[4-(trifluoromethyl)pyridin-2-yl]amino}pyridin-2-yl)-1H-1,2,3-triazol-1-yl]methyl}-1,3-oxazolidin-2-one], the IC50 turned out to be 1.9 nM. The same measure, in the same setting: the value for `Cc1cc(Nc2cc(C(F)(F)F)ccn2)nc(-c2cn(C[C@H]3CCC(=O)N3)nn2)c1` [Example 5.3, (5R)-5-{[4-(4-methyl-6-{[4-(trifluoromethyl)pyridin-2-yl]amino}pyridin-2-yl)-1H-1,2,3-triazol-1-yl]methyl}pyrrolidin-2-one] was 129 nM; that for `Cc1cc(Nc2cc(C(F)F)ccn2)nc(-c2cn(CC(C)(O)CC#N)nn2)c1` (single isomer, unassigned) [Example 23.2, 4-(4-(6-((4-(difluoromethyl)pyridin-2-yl)amino)-4-methylpyridin-2-yl)-1H-1,2,3-triazol-1-yl)-3-hydroxy-3-methylbutanenitrile] was 9 nM; that for `Cc1cc(Nc2cc(C(F)(F)F)ccn2)nc(-c2cn([C@H](C)c3ccc(C(=O)O)cc3)nn2)c1` [Example 9.5, 4-{(1R)-1-[4-(4-methyl-6-{[4-(trifluoromethyl)-pyridin-2-yl]amino}pyridin-2-yl)-1H-1,2,3-triazol-1-yl]ethyl}benzoic acid] was 8.1 nM. Same read-out and setting: as for `Cc1cc(Nc2cc(C(F)(F)F)ccn2)nc(-c2cn(C[C@@H](C)CO)nn2)c1` [Example 5.81, (2R)-2-methyl-3-[4-(4-methyl-6-{[4-(trifluoromethyl)pyridin-2-yl]amino}pyridin-2-yl)-1H-1,2,3-triazol-1-yl]propan-1-ol], the figure is 6.9 nM; as for `Cc1cc(Nc2cc(C(F)(F)F)ccn2)nc(-c2cn(C3CCNC(=O)CC3)nn2)c1` (racemic) [Example 11.3, 5-[4-(4-methyl-6-{[4-(trifluoromethyl)pyridin-2-yl]amino}pyridin-2-yl)-1H-1,2,3-triazol-1-yl]azepan-2-one], 118 nM. Still for that read-out and setting: the value for `Cc1cc(Nc2nccc(C(F)(F)F)n2)cc(-c2cn(Cc3noc(C)n3)nn2)c1` [Example 5.69, N-(3-methyl-5-{1-[(5-methyl-1,2,4-oxadiazol-3-yl)methyl]-1H-1,2,3-triazol-4-yl}phenyl)-4-(trifluoromethyl)pyrimidin-2-amine] was 57.2 nM; that for `COC(=O)C1(n2cc(-c3cc(C)cc(Nc4cc(C(F)(F)F)ccn4)n3)nn2)CC1` [Example 8.1, Methyl 1-[4-(4-methyl-6-{[4-(trifluoromethyl)pyridin-2-yl]amino}pyridin-2-yl)-1H-1,2,3-triazol-1-yl]cyclopropanecarboxylate] was 14.9 nM; that for `Cc1cc(Nc2cc(C(F)(F)F)ccn2)nc(-c2cn(C[C@@H](O)C(N)=O)nn2)c1` [Example 1.14, (2R)-2-hydroxy-3-[4-(4-methyl-6-{[4-(trifluoromethyl)pyridin-2-yl]amino}pyridin-2-yl)-1H-1,2,3-triazol-1-yl]propanamide] was 9.1 nM.

For `Cc1cc(Nc2nccc(C(F)F)n2)cc(-c2cn(CC3OC(=O)NC34CC4)nn2)c1` (single isomer, unassigned) [Example 7.18, 7-((4-(3-((4-(difluoromethyl)pyrimidin-2-yl)amino)-5-methylphenyl)-1H-1,2,3-triazol-1-yl)methyl)-6-oxa-4-azaspiro[2.4]heptan-5-one], the IC50 is 11.7 nM. Still for that read-out and setting: the value for `Cc1cc(Nc2nccc(C(F)(F)F)n2)cc(-c2cn(CC(C)(O)C(C)(C)O)nn2)c1` (stereo not drawn) [Example 21.28, 2,3-dimethyl-1-[4-(3-methyl-5-{[4-(trifluoromethyl)pyrimidin-2-yl]amino}phenyl)-1H-1,2,3-triazol-1-yl]butane-2,3-diol] was 13.2 nM. Same read-out and setting: the value for `Cc1cc(Nc2cc(C(F)(F)F)ccn2)nc(-c2cn(C3CCCCC(O)C3O)nn2)c1` (single isomer, unassigned) [Example 10.3, 3-[4-(4-methyl-6-{[4-(trifluoromethyl)pyridin-2-yl]amino}pyridin-2-yl)-1H-1,2,3-triazol-1-yl]cycloheptane-1,2-diol] was 1 nM; that for `Cc1cc(Nc2cc(OC3CCC3)ccn2)nc(-c2cn(C(C)c3ccc(C(=O)O)cc3)nn2)c1` (stereo not drawn) [Example 2.8, 4-{1-[4-(6-{[4-(cyclobutyloxy)pyridin-2-yl]amino}-4-methylpyridin-2-yl)-1H-1,2,3-triazol-1-yl]ethyl}benzoic acid] was 5050 nM.

Turning to `Cc1cc(Nc2cc(C(F)(F)F)ccn2)nc(-c2cn([C@@H](C)c3ccc(C(=O)O)cc3)nn2)c1` [Example 9.7, 4-{(1S)-1-[4-(4-methyl-6-{[4-(trifluoromethyl)pyridin-2-yl]amino}pyridin-2-yl)-1H-1,2,3-triazol-1-yl]ethyl}benzoic acid], the 50% inhibitory concentration (IC50) worked out at 3.3 nM. On the same count and under the same terms, as for `Cc1cc(Nc2nccc(C(F)F)n2)cc(-c2cn(C(C)C(C)(O)CO)nn2)c1` (single isomer, unassigned) [Example 30.2, 3-(4-(3-((4-(Difluoromethyl)pyrimidin-2-yl)amino)-5-methylphenyl)-1H-1,2,3-triazol-1-yl)-2-methylbutane-1,2-diol], the figure is 6.3 nM; as for `Cc1cc(Nc2cc(C(F)(F)F)ccn2)nc(-c2cn(C3CNCC3O)nn2)c1` (racemic) [Example 5.22, 4-[4-(4-methyl-6-{[4-(trifluoromethyl)pyridin-2-yl]amino}pyridin-2-yl)-1H-1,2,3-triazol-1-yl]pyrrolidin-3-ol], 19.8 nM. On the same count and under the same terms, the value for `Cc1cc(Nc2cc(C(F)(F)F)ccn2)nc(-c2cn(C3CCC(C(=O)O)C(C)(C)C3)nn2)c1` (single isomer, unassigned) [Example 3.8, 2,2-dimethyl-4-[4-(4-methyl-6-{[4-(trifluoromethyl)pyridin-2-yl]amino}pyridin-2-yl)-1H-1,2,3-triazol-1-yl]cyclohexanecarboxylic acid] was 9.8 nM. On the same count and under the same terms, the value for `Cc1cc(Nc2cc(C(F)(F)F)ccn2)nc(-c2cn(C(C(N)=O)c3ccccc3)nn2)c1` (stereo not drawn) [Example 1.18, 2-[4-(4-methyl-6-{[4-(trifluoromethyl)pyridin-2-yl]amino}pyridin-2-yl)-1H-1,2,3-triazol-1-yl]-2-phenylacetamide] was 11.8 nM; that for `Cc1cc(Nc2cc(C(F)(F)F)ccn2)nc(-c2cn(C[C@H](O)CC#N)nn2)c1` [Example 5.44, (3R)-3-hydroxy-4-[4-(4-methyl-6-{[4-(trifluoromethyl)pyridin-2-yl]amino}pyridin-2-yl)-1H-1,2,3-thiazol-1-yl]butanenitrile] was 4.1 nM and 3.18 nM.

On to `Cc1cc(Nc2nccc(C(F)(F)F)n2)cc(-c2cn(C3COCC3O)nn2)c1` (single isomer, unassigned) [Example 4.5, 4-[4-(3-methyl-5-{[4-(trifluoromethyl)pyrimidin-2-yl]amino}phenyl)-1H-1,2,3-triazol-1-yl]tetrahydrofuran-3-ol], for which the IC50 was 61.2 nM.

With `Cc1cc(Nc2nccc(C(F)(F)F)n2)cc(-c2cn(CC(C)(O)C(C)(C)O)nn2)c1` (stereo not drawn) [Example 21.19, 2,3-dimethyl-1-[4-(3-methyl-5-{[4-(trifluoromethyl)pyrimidin-2-yl]amino}phenyl)-1H-1,2,3-triazol-1-yl]butane-2,3-diol], the half-inhibitory concentration (IC50) was 29.3 nM.

The same assay, now with this note: rhSYK Activity IC50, recombinant human GST-Syk 5 pM, ATP 25 μM, 10-dose titration 10 μM to 0.508 nM.
Consider `Cc1cc(Nc2nccc(C(F)(F)F)n2)cc(-c2cn(CCNC(N)=O)nn2)c1` [Example 5.56, 1-{2-[4-(3-methyl-5-{[4-(trifluoromethyl)pyrimidin-2-yl]amino}phenyl)-1H-1,2,3-triazol-1-yl]ethyl}urea], for which the IC50 stood at 76.8 nM.

In general, IC50 refers to the concentration at which inhibition is half-maximal.
